Laboratory results taken from PMC12948427 (The Journal of Clinical Investigation, 2025).
Several values for one entry are separate records, joined by “and”; a condition that tells them apart may be missing. Equal values may be shown once. Read-outs that look alike come from different tables or passages of the source.

Legend:
MHV [1] = format: cell-based, mouse hepatitis virus (MHV)
HCoV-OC43 VLP = format: cell-based
HCoV-HKU1 VLP = format: cell-based
MHV [2] = test: TEM of MHV-infected 17Cl-1 cells (virions, DMVs); format: cell-based, mouse hepatitis virus (MHV)
Procedure: WT or Hgs-KO 17Cl-1 cells were grown on ACLAR films and infected with MHV. At 24 hpi the cells were rinsed with PBS and then fixed with 2.5% glutaraldehyde in PBS overnight. The fixed cells were rinsed with 0.1 M PB 2 times and then double-distilled water 2 times, each time for 6 minutes. They were submerged in an aqueous solution containing 1% osmium tetraoxide and 1.5% potassium ferricyanide for 1.5 hours and then rinsed with double-distilled water 3 times, each time for 6 minutes. The samples underwent a dehydration process in which the solution submerging the samples was sequentially replaced by 30%, 50%, 70%, 80%, 90%, 100%, 100%, and 100% ethanol solutions, with each solution submerging the sample for 6 minutes. The samples were then infiltrated sequentially with 100% acetone for 6 minutes 2 times, 3:1 acetone/EMbed 812 resin for 1 hour, 1:1 acetone/EMbed 812 resin for 2 hours, 1:3 acetone/EMbed 812 resin for 3 hours, and 100% EMbed 812 resin for 12 hours 2 times. The samples were embedded in EMbed 812 resin and underwent solidification at 45°C for 12 hours and then 60°C for 48 hours. Sectioning was performed with a Leica EM UC6 ultramicrotome. The sections were stained with 2% uranyl acetate for 15 minutes and 1% lead citrate for 5 minutes. Electron micrographs were acquired with an FEI Tecnai Spirit 120 kV transmission electron microscope operating at 100 kV accelerating voltage.

[3] = format: cell-based
WIV1 [4] = format: cell-based, bat coronavirus WIV1
SARS-CoV-2 Omicron BA.5 = test: microbe, parasite or virus in culture; format: cell-based; details: Severe acute respiratory syndrome coronavirus 2, 24 h, read-out: EC50 (IFA)
MHV [5] = test: microbe, parasite or virus in culture; details: Murine coronavirus, 24 h, read-out: EC50, rescue of coronavirus-induced cytopathic effects
WIV1 [6] = test: microbe, parasite or virus in culture; format: cell-based, bat coronavirus WIV1; details: Bat coronavirus, 48 h, read-out: EC50 (IFA)
HCoV-OC43 [7] = test: Infection of ALI-cultured primary HBEs, HCoV-OC43; format: cell-based
Procedure: (§1) Primary HBEs at passage 3 or earlier were seeded at a density of 40,000 cells per well in Transwell inserts (Costar 6.5 mm Transwell, 0.4 μm Pore Polyester Membrane Inserts, catalog 3470) for expansion culture. The cells were cultured in expansion medium (PneumaCult-Ex Plus Medium, catalog 05040) until tight junctions were formed. Once tight junctions were established, the expansion medium in the upper chamber was discarded, and the medium in the lower chamber was replaced with ALI differentiation medium (PneumaCult-ALI Medium, catalog 05001). Cells were maintained under ALI conditions, with the medium being changed every 2 days. The differentiation process was carried out for 21 days, during which cell morphology and differentiation status were monitored. The fully differentiated cells were infected with HCoV-OC43, HCoV-229E, HCoV-NL63, or SARS-CoV-2 (MOI = 1), and fresh medium was changed 1 hour postinfection. Specific peptide was added into the medium every 24 hours. At 96 hours postinfection, cells in Transwell inserts were washed with 140 μL PBS per insert, and the wash fluid was collected to extract virus RNA followed by RT-qPCR. […] The fluorescence was measured using ImageJ (NIH).

MERS VLP = format: cell-based, MERS-CoV
HCoV-NL63 [8] = test: In vitro antiviral activity assay (IFA), HCoV-NL63; format: cell-based; details: for Inhibition rate (IFA): Fig 5C, MOI 0.1, 48 h
HCoV-OC43 [9] = test: In vitro antiviral activity assay (IFA), HCoV-OC43; format: cell-based; details: for Inhibition rate (IFA): Fig 5E, MOI 0.1, 48 h
HCoV-NL63 [10] = test: Infection of ALI-cultured primary HBEs, HCoV-NL63; format: cell-based
Procedure: as §1

SARS-CoV-2 VLP = format: cell-based
[11] = TEM, RTB-treated versus DMSO, sheet does not name what is scored

Structure (SMILES): CCCC(=O)OC[C@@H](OC(=O)CCC)[C@@H](OC(=O)CCC)[C@H](Cn1c2nc(=O)[nH]c(=O)c-2nc2cc(C)c(C)cc21)OC(=O)CCC [RTB, riboflavin tetrabutyrate]
- Extracellular MHV gRNA (Figure S11A) (MHV [1]; Ctr 17Cl-1 cells, 24 hpi): 2.752 and 2.754 and 2.756
- Extracellular MHV gRNA (Figure S11A) (MHV [1]; Ctr 17Cl-1 cells, 48 hpi): 3.4199 and 3.426 and 3.424
- Extracellular MHV gRNA (Figure S11A) (MHV [1]; Ctr 17Cl-1 cells, 72 hpi): 4.001 and 4.062 and 3.972
- Extracellular MHV gRNA (Figure S11A) (MHV [1]; Hgs-KO1 17Cl-1 cells, 24 hpi): 1.499 and 1.531 and 1.548
- Extracellular MHV gRNA (Figure S11A) (MHV [1]; Hgs-KO1 17Cl-1 cells, 48 hpi): 1.985 and 1.987 and 1.914
- Extracellular MHV gRNA (Figure S11A) (MHV [1]; Hgs-KO1 17Cl-1 cells, 72 hpi): 3.343 and 3.307 and 3.373
- Extracellular MHV gRNA (Figure S11A) (MHV [1]; Hgs-KO2 17Cl-1 cells, 24 hpi): 1.087 and 1.162 and 1.202
- Extracellular MHV gRNA (Figure S11A) (MHV [1]; Hgs-KO2 17Cl-1 cells, 48 hpi): 1.5876 and 1.652 and 1.594
- Extracellular MHV gRNA (Figure S11A) (MHV [1]; Hgs-KO2 17Cl-1 cells, 72 hpi): 2.484 and 2.493 and 2.452
- antiviral activity in Hgs-KO cells (MHV [1]; MHV, Hgs-KO 17Cl-1, RTB 25 μM or RDV 5 μM, compared with DMSO-treated Hgs-KO cells): failed to inhibit viral infection
- VLPs' release (HCoV-OC43 VLP): concentration-dependent inhibition
- VLPs' release (HCoV-HKU1 VLP): concentration-dependent inhibition
- DMVs, the replication organelles (TEM) (MHV [2]; 25 μM, MHV-infected 17Cl-1, hpi = 24 h): not significantly changed
- intracellular mature virions (TEM) (MHV [2]; 25 μM, MHV-infected 17Cl-1, hpi = 24 h, compared with DMSO): significantly decreased
- Negative (count, Figure 7G) (MHV [2]; RTB-treated, DMSO: 19): 2
- Positive (count, Figure 7G) (MHV [2]; RTB-treated, DMSO: 41): 58
- Negative (number of cells counted, Figure 7H) (MHV [2]; [11]): 37
- Positive (number of cells counted, Figure 7H) (MHV [2]; [11]): 23
- Inhibition, time-of-drug-addition (Figures S12A, S12B) ([3]; 1h, concentration 10000 (unit not given)): 18.697 and 20.3699 and 24.961
- Inhibition, time-of-drug-addition (Figures S12A, S12B) ([3]; 1h, concentration 25000 (unit not given)): 81.3431 and 85.284 and 85.9984
- Inhibition, time-of-drug-addition (Figures S12A, S12B) ([3]; 3h, concentration 3000 (unit not given)): 10.0367 and 8.463 and 5.695
- Inhibition, time-of-drug-addition (Figures S12A, S12B) ([3]; 3h, concentration 10000 (unit not given)): 25.0374 and 23.4524 and 23.7085
- Inhibition, time-of-drug-addition (Figures S12A, S12B) ([3]; 3h, concentration 25000 (unit not given)): 87.678 and 84.0771 and 84.6309
- Inhibition, time-of-drug-addition (Figures S12A, S12B) ([3]; 5h, concentration 10000 (unit not given)): 24.2683 and 28.1902 and 26.5679
- Inhibition, time-of-drug-addition (Figures S12A, S12B) ([3]; 5h, concentration 25000 (unit not given)): 80.9022 and 85.7938 and 85.9604
- Inhibition, time-of-drug-addition (Figures S12A, S12B) ([3]; 7h, concentration 3000 (unit not given)): 11.352 and 13.6306 and 7.232
- Inhibition, time-of-drug-addition (Figures S12A, S12B) ([3]; 7h, concentration 10000 (unit not given)): 27.8545 and 21.5848 and 25.4245
- Inhibition, time-of-drug-addition (Figures S12A, S12B) ([3]; 7h, concentration 25000 (unit not given)): 81.9707 and 81.2844 and 80.2961
- inhibition of infection in ALI cultures of HBEs (WIV1 [4]): significant, dose-dependent inhibition
- EC50 (SARS-CoV-2 Omicron BA.5): 4.09 µM
- EC50 (MHV [5]): 3.48 µM
- EC50 (WIV1 [6]): 3.53 µM
- cell viability, Figure S9M (Vero E6 cells; concentration 100): 90.9619 and 91.4921 and 91.5678
- cell viability, Figure S9M (Vero E6 cells; concentration 200): 83.3123 and 82.1005 and 89.9015
- cell viability, Figure S9M (Vero E6 cells; concentration 500): 91.4921 and 86.1146 and 87.6294
- cell viability, Figure S9M (Vero E6 cells; concentration 1000): 92.9311 and 88.614 and 83.4638
- cell viability, Figure S9M (Vero E6 cells; concentration 2000): 97.5511 and 94.5216 and 90.4317
- cell viability, Figure S9M (Vero E6 cells; concentration 5000): 93.6885 and 92.1737 and 93.0068
- cell viability, Figure S9M (Vero E6 cells; concentration 10000): 96.718 and 96.0363 and 91.6435
- cell viability, Figure S9M (Vero E6 cells; concentration 20000): 91.6435 and 99.3688 and 98.3085
- extracellular viral gRNA levels (RT-qPCR) (HCoV-OC43 [7]; Fig 5I, HCoV-OC43 MOI = 1, ALI-cultured HBEs, 96 h, RTB dose 5 (unit not given)): 24 and 18 and 15
- inhibition of infection in ALI cultures of HBEs (HCoV-OC43 [7]; HCoV-OC43): significant, dose-dependent inhibition
- VLPs' release (MERS VLP): concentration-dependent inhibition
- Inhibition rate (IFA) (HCoV-NL63 [8]; conc 30 (unit not given)): -14.9284% and -12.1937% and -12.3632%
- Inhibition rate (IFA) (HCoV-NL63 [8]; conc 100 (unit not given)): -16.9149% and -18.5591% and -23.768%
- Inhibition rate (IFA) (HCoV-NL63 [8]; conc 1000 (unit not given)): -12.8364% and -7.587% and -17.221%
- Inhibition rate (IFA) (HCoV-NL63 [8]; conc 10000 (unit not given)): 59.7114% and 61.0537% and 58.023%
- Inhibition rate (IFA) (HCoV-NL63 [8]; conc 25000 (unit not given)): 99.7675% and 100.17% and 100.28%
- EC50 (HCoV-NL63 [8]; Human coronavirus NL63, 48 h, read-out: EC50 (IFA)): 8.46 µM
- EC50 (HCoV-OC43 [9]; Betacoronavirus 1, OC43, 48 h, read-out: EC50 (IFA)): 13.9 µM
- Inhibition rate (IFA) (HCoV-OC43 [9]; conc 10 (unit not given)): 33.23% and 29.76% and 39.01%
- Inhibition rate (IFA) (HCoV-OC43 [9]; conc 30 (unit not given)): 30.69% and 22.69% and 29.93%
- Inhibition rate (IFA) (HCoV-OC43 [9]; conc 100 (unit not given)): 21.56% and 24.49% and 30.14%
- Inhibition rate (IFA) (HCoV-OC43 [9]; conc 300 (unit not given)): 23.53% and 24.32% and 29.19%
- Inhibition rate (IFA) (HCoV-OC43 [9]; conc 1000 (unit not given)): 26.08% and 27.96% and 36.83%
- Inhibition rate (IFA) (HCoV-OC43 [9]; conc 3000 (unit not given)): 25.37% and 28.07% and 29.03%
- Inhibition rate (IFA) (HCoV-OC43 [9]; conc 10000 (unit not given)): 32.25% and 33.08% and 32.48%
- Inhibition rate (IFA) (HCoV-OC43 [9]; conc 25000 (unit not given)): 79.43% and 69.76% and 58.83%
- extracellular viral gRNA levels (RT-qPCR) (HCoV-NL63 [10]; Fig 5J, HCoV-NL63 MOI = 1, ALI-cultured HBEs, 96 h, RTB dose 5 (unit not given)): 46 and 42 and 25
- inhibition of infection in ALI cultures of HBEs (HCoV-NL63 [10]; HCoV-NL63): significant, dose-dependent inhibition
- VLPs' release (SARS-CoV-2 VLP): concentration-dependent inhibition
